This note sets out measurements from patent EP2423181A1, “Multitarget substituted biphenyl diol derivatives” (PROUS INSTITUTE FOR BIOMEDICAL RESEARCH S.A., priority 2010, dated 2012).

In general, inhibition refers to the change of the read-out against control, counted positive when it falls. The IC50 is the point on the concentration scale where inhibition reaches its midpoint. One may read the MTD as the highest dose tested that stayed within the study's limit of toxicity.

Data set [1] can be described thus: log D octanol/water distribution coefficient. The class given is physicochemical. From the text: Lipophilicity has been correlated to various drug properties, affecting permeability, absorption, distribution, plasma protein binding, metabolism, elimination, and toxicity. In contrast to honokiol and magnolol, compounds claimed in the invention, and more particularly those wherein the nitrogen atom in the group -O-CH(phenyl)-(CH2)p-NH-R^3 is protonated and the compound further comprises a pharmaceutically acceptable counter-anion present an optimal log Doctanol/water (range 0-3), indicating good aqueous solubility, permeability, oral absorption, and blood-brain barrier penetration. Experimental studies in murine models have confirmed the results.
Absorption, distribution and metabolism studies in vitro with selected examples were performed in order to determine pharmacokinetic parameters such as permeability (or absorption constant), intrinsic clearance (or metabolic clearance), and bioavailability. Physicochemical properties such as water solubility, pKa, log P, and log Doctanol/water, and in vitro experimental studies such as permeability in Caco2 cells, and protein binding in the mouse, stability in murine microsomes, chemical stability at different pH and stability in plasma were evaluated for the pharmacokinetic prediction in mice.

For another data set, the target named is T1, Src (Homo sapiens, UniProt P12931).
T1 construct: host or cells: Sf9 insect cells
T1 sequence (P12931 whole entry): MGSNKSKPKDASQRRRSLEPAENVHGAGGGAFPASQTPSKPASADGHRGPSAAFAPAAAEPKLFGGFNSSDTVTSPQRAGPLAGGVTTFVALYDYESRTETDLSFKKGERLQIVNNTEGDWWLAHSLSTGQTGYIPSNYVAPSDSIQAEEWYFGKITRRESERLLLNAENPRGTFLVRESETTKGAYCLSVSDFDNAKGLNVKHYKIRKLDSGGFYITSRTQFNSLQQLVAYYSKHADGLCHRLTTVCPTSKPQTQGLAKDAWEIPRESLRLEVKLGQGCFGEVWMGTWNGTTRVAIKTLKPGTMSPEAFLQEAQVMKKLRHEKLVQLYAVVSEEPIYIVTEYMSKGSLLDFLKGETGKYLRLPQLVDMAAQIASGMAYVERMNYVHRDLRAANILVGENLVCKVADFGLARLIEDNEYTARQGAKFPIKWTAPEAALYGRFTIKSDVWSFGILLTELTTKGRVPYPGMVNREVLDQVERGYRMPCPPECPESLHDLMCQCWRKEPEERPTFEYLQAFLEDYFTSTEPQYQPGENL
As to the kind of experiment: Src protein tyrosine kinase inhibition (ELISA of Poly[Glu:Tyr-P]). The class given is biochemical. The method, then: Src protein tyrosine kinase activity was assessed in human recombinant insect Sf9 cells using as a substrate Poly(Glu:Tyr) at 10 µg/mL with preincubation and incubation times of 15 and 5 min, respectively, at 22°C in 50 mM HEPES, pH 7.4, 1 mM DTT, 20 mM MgCl2 and 0.2 mM Na3VO4. An ELISA quantitation method of Poly[Glu:Tyr-P] was employed (Farley, K et al. Anal Biochem, 1992, 203, 151-157). Table 4. Inhibition of Src at 10 µM
Background: ELISA stands for enzyme-linked immunosorbent assay.

For data set [2], the target named is T2, CDK2/CCNA2 (cdk2/cyclin A) (Homo sapiens, UniProt P24941).
T2 construct: host or cells: Sf21 insect cells
Briefly: CDK2/cyclin A kinase inhibition ([32P]Histone H1). The class given is biochemical. The method, then:
Human recombinant Sf21 cells were employed to assess the activity on protein serine threonine kinase CDK2/CCNA2 (cdk2/cyclin A). Histone H1 at 100 µg/ml was used as a substrate and the activity was measured by quantification of [^32P]Histone H1 after preincubation and incubation times of 15 and 30 min, respectively, at 37°C in 20 mM MOPS, pH 7.2, 5 mM EGTA, 20 mM MgCl2, 1 mM DTT, 25 mM β-Glycerophosphate, 1 mM Na3V04 incubation buffer (Gray, N. et al. Curr Med Chem, 1999, 6(9):859-875). Table 7. Inhibition of CDK2 at 10 µM

The test system of a further data set is tumor breast MCF-7. Briefly: Tumor cell proliferation assay (alamarBlue). The class given is cell-based. To be noted: Homo sapiens, MCF7. As to the method: (§1) Changes in cell proliferation were detected based on the ability of viable cells to cause alamarBlue® to change its oxidized (non-fluorescent, blue) to a reduced (fluorescent, red) form. The alamarBlue® reaction allows the quantification of cell proliferation and examination of the metabolic activity of viable cells. Test substances were examined for activity on the proliferation of human or murine tumor cell lines at assay concentrations from 0.01 to 100 µM.
Background: The colour change of resazurin is a common sign of viable cells or microbes.

For a further data set, the system named is tumor breast MDA-MB-231. As to the kind of experiment: Tumor cell proliferation assay (alamarBlue). The class given is cell-based. To be noted: Homo sapiens. As to the method: as §1
The next data set relates to tumor breast T-47D. Briefly: Tumor cell proliferation assay (alamarBlue). The class given is cell-based. The following applies: Homo sapiens, T47D. The method, then: as §1
A further data set concerns tumor leukaemia K562. Briefly: Tumor cell proliferation assay (alamarBlue). The class given is cell-based. The following applies: Homo sapiens. The method, then:
as §1

Another data set relates to tumor liver Hep 3B. Briefly: Tumor cell proliferation assay (alamarBlue). The class given is cell-based. The following applies: Homo sapiens, Hep3B. The method, then:
as §1

Another data set deals with tumor liver HepG2. As to the kind of experiment: Tumor cell proliferation assay (alamarBlue). The following applies: Homo sapiens. The class given is cell-based. As to the method: as §1
For the next data set, the system named is tumor lung A549. Briefly: Tumor cell proliferation assay (alamarBlue). The class given is cell-based. The following applies: Homo sapiens. As to the method: as §1
For a further data set, the system named is tumor prostate LNCaP-FGC. Briefly: Tumor cell proliferation assay (alamarBlue). The class given is cell-based. To be noted: Homo sapiens. As to the method:
as §1

Data set [3] can be described thus: Maximum Tolerated Dose after acute administration. To be noted: mouse, in vivo, ip, mice. As to the method:
The Maximum Tolerated Dose (MTD) in mice was determined for selected compounds. The protocol of the studies was in accordance with the standard guidelines for drug development: • (htp://dtp.nci.nih.gov/branches/btb/acute tox.html). Table 10. Maximum Tolerated Doses in mice after acute i.p. administration

For the next data set, the system named is mice. Briefly: Formalin test (antinociceptive activity). The following applies: for Early Response / Late Response: formalin test, dose 10-30 mg/Kg i.p.; for Early Response: early response 0-5 min; for Late Response: late response 20-30 min. The class given is in vivo. As to the method: The chemical irritant formalin test is used as a chronic pain model in animals. The s.c. administration of formalin to the paw of a mouse produces a biphasic nociceptive behavioral response, an early response (0-5 min after injection) and a late response (20-30 min after injection) (Hunskaar, S., Fasmer, O.B., Hole, K. Formalin test in mice, a useful technique for evaluating mild analgesics. J Neurosci Methods, 1985 ;14(1):69-76).
Aspirine and paracetamol are included as external active references in early and late response. Table 12. Early and late response inhibition in the formalin test.

The next data set relates to tumor brain U-87 MG. As to the kind of experiment: Tumor cell proliferation assay (alamarBlue). To be noted: Homo sapiens; tumor brain U-87 MG; read-out: IC50. The class given is cell-based. The method, then:
as §1

Another data set relates to tumor colon HCT-116. Briefly: Tumor cell proliferation assay (alamarBlue). The class given is cell-based. The following applies: Homo sapiens; tumor colon HCT-116; read-out: IC50. As to the method: as §1
The next data set relates to tumor ovary OVCAR-3. Briefly: Tumor cell proliferation assay (alamarBlue). The class given is cell-based. To be noted: Homo sapiens; tumor ovary OVCAR-3; read-out: IC50. As to the method: as §1
[4] abbreviates: tumor leukaemia K562, read-out: IC50.
[5] abbreviates: tumor liver HepG2, read-out: IC50.
Setting [6] is: tumor lung A549, read-out: IC50.
Setting [7] is: tumor prostate LNCaP-FGC, read-out: IC50.

Counter-ions that a name gives are not always drawn. Like-named read-outs stand apart in the source and are kept apart here.

In turn, `C=CCc1ccc(O)c(-c2ccc(OC(CCNC)c3ccccc3)c(CC=C)c2)c1` (stereo not shown) [Example 5, 3',5-Diallvl-4'-13-(methylamino)-1-phenylpropoxy]biphenyl-2-ol hydrochloride] yielded a logDoctanol/water in [1] of 0.85. In addition, the inhibition at 10 µM against Src was above 100%; in [2] it was 98%. Further, the IC50 in the data set on tumor breast MCF-7 was 4.5 µM; in the data set with tumor breast MDA-MB-231 (MDA-MB-231) it was 2100 nM; in the data set on tumor breast T-47D it was 1.6 µM; in the data set on tumor leukaemia K562 (K562), 1400 nM; in the data set with tumor liver Hep 3B, 1.9 µM; in the data set on tumor liver HepG2 (HepG2), 1000 nM. The IC50 with tumor lung A549 (A549) came to 1.2 µM; in the data set on tumor prostate LNCaP-FGC, 1.5 µM. This compound also displayed an MTD in [3] of 25 mg/kg. Also, in the data set with mice, the “Early Response” value is reported as “slightly active”. Further, the “Late Response” value in the data set with mice is listed as “Active”.
Compound `C=CCc1ccc(O)c(-c2cc(CC=C)ccc2OC(CCNC)c2ccccc2)c1.Cl` (stereo not shown) [Example 1, 5,5'-Diallyl-2'-[3-(methylamino)-1-phenylpropoxy]biphenyl-2-ol hydrochloride] yielded a logDoctanol/water in data set [1] of 1.31. For the same compound, the inhibition at 10 µM was found to be 99% on Src (Src, at 10 µM, read-out: % Inhibition) and 92% in data set [2] (CDK2, at 10 µM, read-out: % Inhibition). Besides, the IC50 was determined as 2 µM with tumor brain U-87 MG; 1.6 µM in the data set on tumor breast MCF-7 (tumor breast MCF-7, read-out: IC50); 3300 nM in the data set with tumor breast MDA-MB-231 (tumor breast MDA-MB-231, read-out: IC50); 13 µM with tumor breast T-47D (tumor breast T-47D, read-out: IC50); 4.3 µM in the data set with tumor colon HCT-116; 1900 nM with tumor leukaemia K562 (setting [4]). Moreover, the IC50 with tumor liver Hep 3B (tumor liver Hep 3B, read-out: IC50) was determined as 5.6 µM; in the data set with tumor liver HepG2 (setting [5]), 1400 nM; in the data set with tumor lung A549 (setting [6]), 5 µM; in the data set on tumor ovary OVCAR-3, 4.6 µM; in the data set on tumor prostate LNCaP-FGC (setting [7]) it was 13 µM. In data set [3], this compound came in with an MTD of 25 mg/kg. The “antinociceptive activity in the formalin test” value with mice (30 mg/kg i.p, early and late phases, potency similar to morphine 10 mg/kg i.p.) is “relevant antinociceptive activity”. The “Early Response” value in the data set with mice is “slightly active”. The “Late Response” value with mice is “active”.
Turning to `C=CCc1ccc(O)c(-c2ccc(O)c(CC=C)c2)c1` [Honokiol, reference compound], the logDoctanol/water in [1] is 5.25. The IC50 in the data set on tumor brain U-87 MG was determined as 56 µM; in the data set on tumor colon HCT-116, 17 µM; in the data set on tumor leukaemia K562 (setting [4]), 16000 nM; in the data set on tumor liver HepG2 (setting [5]), 12000 nM; with tumor lung A549 (setting [6]), 12 µM; in the data set on tumor ovary OVCAR-3, 38 µM. Besides, the IC50 with tumor prostate LNCaP-FGC (setting [7]) worked out at 16 µM.
